From patent US20250129070A1, “BIFUNCTIONAL ANDROGEN RECEPTOR COMPOUNDS” (priority 2023, published 2025)

How the values were obtained:
AR / CBP ternary complex = assay: Ternary complex formation assay (sandwich ELISA, AR capture / CBP detection) in VCaP cell lysates; assay type: cell-based; details: 1.5 hours treatment, sandwich ELISA (AR capture, CBP or p300 detection)
Summary of the method: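 VCaP cells (50K/well, 5% charcoal-stripped FBS, ≥3 days) treated with bifunctional compound for 1.5 h, then lysed 30 min at 4 °C. AR captured on anti-AR (AR 441) plates; bound CBP or p300 detected by rabbit mAb plus HRP secondary. QuantaRed chemifluorescence read at ex 570/em 585, immediately and at 5 and 15 min.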

VCaP cells = assay: VCaP growth inhibition assay; assay type: cell-based; details: 30 pM R1881, 9 days, CTG
Experimental: VCaP cells (ATCC Cat #CRL-2876) are plated at 1×10^4 cells per well of a white plastic 96-well cluster plate (Thermo Scientific Nunc Cat #165306) in 100 uL phenol red-free DMEM (Gibco Cat #21063-029) media with 5% CSS (Omega Scientific Cat #FB-04). Cluster plates are returned to the incubator (37*C/5% CO2) for 72 hours prior to treatment. Just prior to treatment, 100 μL of phenol red-free DMEM/5% CSS and […] R1881 (Sigma Cat #R0908-10 mg) was added to each well of the cluster plates (Final R1881 concentration=30 pM). Compounds (200×) were added to each well in a volume of 1 uL, with serial dilutions (1:5) from 20 uM to 2 pM (final concentrations in well are 100 nM to 10 fM). Cluster plates are returned to the incubator for 9 days.
After the 9-day treatment period, media was removed from the cluster plates by inversion and 100 uL room temperature CTG reagent (Promega Cat #G7573) is added to each well. The cluster plates are placed on a shaker and incubated at room temperature for 20 minutes. Following this shaking/incubation, cluster plates are read on a luminometer (BMG ClarioStar). IC50 values are obtained by graphing the RLU data vs. compound concentration with nonlinear regression 4-parameter logistic curves (GraphPad Prism).

| SMILES | EC50 (AR / CBP ternary complex) [nM] | IC50 (VCaP cells) [nM] |
| --- | --- | --- |
| COc1cc(OC2C(C)(C)C(NC(=O)c3ccc(N4CCC(C5CCN(c6ccc(-c7cc8cccc(-c9nn(C%10CCOCC%10)c%10c9CN(C(C)=O)CC%10)c8cn7)cn6)CC5)CC4)cc3)C2(C)C)ccc1C#N (stereo not shown) [Compound 267, 4-[4-[1-[5-[8-(5-acetyl-1-tetrahydropyran-4-yl-6,7-dihydro-4H-pyrazolo[4,3-c]pyridin-3-yl)-3-isoquinolyl]-2-pyridyl]-4-piperidyl]-1-piperidyl]-N-[3-(4-cyano-3-methoxy-phenoxy)-2,2,4,4-tetramethyl-cyclobutyl]benzamide] | 1 to 10 | 1 to 100 |
| CC(=O)N1CCc2c(c(N3CCCc4cc(-c5cnn(C)c5)c(C(F)F)cc43)nn2C2CCN([C@H]3CCN(c4ncc(C(=O)NC5C(C)(C)C(Oc6ccc(C#N)c(Cl)c6)C5(C)C)cn4)C3)CC2)C1 (stereo partly drawn) [Compound 334, 2-[(3S)-3-[4-[5-acetyl-3-[7-(difluoromethyl)-6-(1-methylpyrazol-4-yl)-3,4-dihydro-2H-quinolin-1-yl]-6,7-dihydro-4H-pyrazolo[4,3-c]pyridin-1-yl]-1-piperidyl]pyrrolidin-1-yl]-N-[3-(3-chloro-4-cyano-phenoxy)-2,2,4,4-tetramethyl-cyclobutyl]pyrimidine-5-carboxamide] | < 1 | 0.1 to 1 |
| CC(=O)N1CCc2c(c(N3CCCc4cc(-c5cnn(C)c5)c(C(F)F)cc43)nn2CCN(C)c2ncc(C(=O)NC3C(C)(C)C(Oc4ccc(C#N)c(Cl)c4)C3(C)C)cn2)C1 (stereo not shown) [Compound 45, 2-[2-[5-acetyl-3-[7-(difluoromethyl)-6-(1-methylpyrazol-4-yl)-3,4-dihydro-2H-quinolin-1-yl]-6,7-dihydro-4H-pyrazolo[4,3-c]pyridin-1-yl]ethyl-methyl-amino]-N-[3-(3-chloro-4-cyano-phenoxy)-2,2,4,4-tetramethyl-cyclobutyl]pyrimidine-5-carboxamide] | > 100 | > 100 |
| CC(=O)N1CCc2c(c(-c3cccc4cc(-c5cnn(CC6CC7(C6)CN(c6ncc(C(=O)NC8C(C)(C)C(Oc9ccc(C#N)c(Cl)c9)C8(C)C)cn6)C7)c5)ncc34)nn2C)C1 (stereo not shown) [Compound 224, 2-[6-[[4-[8-(5-acetyl-1-methyl-6,7-dihydro-4H-pyrazolo[4,3-c]pyridin-3-yl)-3-isoquinolyl]pyrazol-1-yl]methyl]-2-azaspiro[3.3]heptan-2-yl]-N-[3-(3-chloro-4-cyano-phenoxy)-2,2,4,4-tetramethyl-cyclobutyl]pyrimidine-5-carboxamide] | < 1 | 0.1 to 1 |
| CC(=O)N1CCc2c(c(N3CCCc4cc(-c5cnn(C)c5)c(C(F)F)cc43)nn2C2CCC(OC3CCN(c4ncc(C(=O)NC5C(C)(C)C(Oc6ccc(C#N)c(Cl)c6)C5(C)C)cn4)CC3)CC2)C1 (stereo not shown) [Compound 338, 2-[4-[4-[5-acetyl-3-[7-(difluoromethyl)-6-(1-methylpyrazol-4-yl)-3,4-dihydro-2H-quinolin-1-yl]-6,7-dihydro-4H-pyrazolo[4,3-c]pyridin-1-yl]cyclohexoxy]-1-piperidyl]-N-[3-(3-chloro-4-cyano-phenoxy)-2,2,4,4-tetramethyl-cyclobutyl]pyrimidine-5-carboxamide] | < 1 | 0.1 to 1 |
| CC(=O)N1CCc2c(c(N3CCCc4cc(-c5cnn(C)c5)c(C(F)F)cc43)nn2C2CCN(C3CCN(c4ncc(C(=O)NC5C(C)(C)C(Oc6ccc(C#N)c(Cl)c6)C5(C)C)cn4)CC3)C2)C1 (stereo not shown) [Compound 12, 2-[4-[3-[5-acetyl-3-[7-(difluoromethyl)-6-(1-methylpyrazol-4-yl)-3,4-dihydro-2H-quinolin-1-yl]-6,7-dihydro-4H-pyrazolo[4,3-c]pyridin-1-yl]pyrrolidin-1-yl]-1-piperidyl]-N-[3-(3-chloro-4-cyano-phenoxy)-2,2,4,4-tetramethyl-cyclobutyl]pyrimidine-5-carboxamide] | 1 to 10 | 1 to 100 |

Continued, values first:

| EC50 (AR / CBP ternary complex) [nM] | IC50 (VCaP cells) [nM] | SMILES |
| --- | --- | --- |
| < 1 | ≤ 0.1 | CC(=O)N1CCc2c(c(N3CCCc4cc(-c5cnn(C)c5)c(C(F)F)cc43)nn2C2CCN(C[C@@H]3CCN(c4ncc(C(=O)NC5C(C)(C)C(Oc6ccc(C#N)c(Cl)c6)C5(C)C)cn4)C[C@@H]3C)CC2)C1 (stereo partly shown) [Compound 363] |
| < 1 | 0.1 to 1 | CC(=O)N1CCc2c(c(N3CCCc4cc(-c5cnn(C)c5)c(C(F)F)cc43)nn2C2CCN(C3CC4(CCC(Oc5ncc(C(=O)NC6C(C)(C)C(Oc7ccc(C#N)c(Cl)c7)C6(C)C)cn5)CC4)C3)CC2)C1 (stereo not shown) [Compound 395, 2-[2-[4-[5-acetyl-3-[7-(difluoromethyl)-6-(1-methylpyrazol-4-yl)-3,4-dihydro-2H-quinolin-1-yl]-6,7-dihydro-4H-pyrazolo[4,3-c]pyridin-1-yl]-1-piperidyl]spiro[3.5]nonan-7-yl]oxy-N-[3-(3-chloro-4-cyano-phenoxy)-2,2,4,4-tetramethyl-cyclobutyl]pyrimidine-5-carboxamide] |
| < 1 | ≤ 0.1 | CC(=O)N1CCc2c(c(N3CCCc4cc(-c5cnn(C)c5)c(C)cc43)nn2C2CCN(CC3CCN(c4ncc(C(=O)NC5C(C)(C)C(Oc6ccc(C#N)c(Cl)c6C)C5(C)C)cn4)CC3(C)C)CC2)C1 (stereo not shown) [Compound 464, 2-[4-[[4-[5-acetyl-3-[7-methyl-6-(1-methylpyrazol-4-yl)-3,4-dihydro-2H-quinolin-1-yl]-6,7-dihydro-4H-pyrazolo[4,3-c]pyridin-1-yl]-1-piperidyl]methyl]-3,3-dimethyl-1-piperidyl]-N-[3-(3-chloro-4-cyano-2-methyl-phenoxy)-2,2,4,4-tetramethyl-cyclobutyl]pyrimidine-5-carboxamide] |
| < 1 | ≤ 0.1 | COc1cc(OC2C(C)(C)C(NC(=O)c3ccc(N4CC5(CCC(N6CCC(n7nc(N8CCCc9cc(-c%10ccn(C)n%10)c(C(F)F)cc98)c8c7CCN(C(C)=O)C8)CC6)CC5)C4)cc3)C2(C)C)ccc1C#N (stereo not shown) [Compound 432, 4-[7-[4-[5-acetyl-3-[7-(difluoromethyl)-6-(1-methylpyrazol-3-yl)-3,4-dihydro-2H-quinolin-1-yl]-6,7-dihydro-4H-pyrazolo[4,3-c]pyridin-1-yl]-1-piperidyl]-2-azaspiro[3.5]nonan-2-yl]-N-[3-(4-cyano-3-methoxy-phenoxy)-2,2,4,4-tetramethyl-cyclobutyl]benzamide] |
| < 1 | 0.1 to 1 | CC(=O)N1CCc2c(c(N3CCCc4cc(-c5cnn(C)c5)c(C)cc43)nn2C2CCN(CC3C(C)CN(c4ncc(C(=O)NC5C(C)(C)C(Oc6ccc(C#N)c(Cl)c6)C5(C)C)cn4)CC3C)CC2)C1 (stereo not shown) [Compound 444, 2-[4-[[4-[5-acetyl-3-[7-methyl-6-(1-methylpyrazol-4-yl)-3,4-dihydro-2H-quinolin-1-yl]-6,7-dihydro-4H-pyrazolo[4,3-c]pyridin-1-yl]-1-piperidyl]methyl]-3,5-dimethyl-1-piperidyl]-N-[3-(3-chloro-4-cyano-phenoxy)-2,2,4,4-tetramethyl-cyclobutyl]pyrimidine-5-carboxamide] |
| 1 to 10 | 1 to 100 | COc1cc(OC2C(C)(C)C(NC(=O)c3ccc(N4CC(N5CCCC6(CCC(n7nc(N8CCCc9cc(-c%10cnn(C)c%10)c(C(F)F)cc98)c8c7CCN(C(C)=O)C8)CC6)C5)C4)cc3)C2(C)C)ccc1C#N (stereo not shown) [Compound 415, 4-[3-[9-[5-acetyl-3-[7-(difluoromethyl)-6-(1-methylpyrazol-4-yl)-3,4-dihydro-2H-quinolin-1-yl]-6,7-dihydro-4Hpyrazolo[4,3-c]pyridin-1-yl]-2-azaspiro[5.5]undecan-2-yl]azetidin-1-yl]-N-[3-(4-cyano-3-methoxy-phenoxy)-2,2,4,4-tetramethyl-cyclobutyl]benzamide] |
| < 1 | ≤ 0.1 | CC(=O)N1CCc2c(c(N3CCCc4cc(-c5cnn(C)c5)c(C(F)F)cc43)nn2C2CCN(CC3C(C)CN(c4ncc(C(=O)NC5C(C)(C)C(Oc6ccc(C#N)c(Cl)c6C)C5(C)C)cn4)CC3C)CC2)C1 (stereo not shown) [Compound 460, 2-[4-[[4-[5-acetyl-3-[7-(difluoromethyl)-6-(1-methylpyrazol-4-yl)-3,4-dihydro-2H-quinolin-1-yl]-6,7-dihydro-4H-pyrazolo[4,3-c]pyridin-1-yl]-1-piperidyl]methyl]-3,5-dimethyl-1-piperidyl]-N-[3-(3-chloro-4-cyano-2-methyl-phenoxy)-2,2,4,4-tetramethyl-cyclobutyl]pyrimidine-5-carboxamide] |
| < 1 | ≤ 0.1 | COc1cc(OC2C(C)(C)C(NC(=O)c3ccc(N4CCC(N5CC6(CCC(n7nc(N8CCCc9cc(-c%10cnn(C)c%10)c(C(F)F)cc98)c8c7CCN(C(C)=O)C8)CC6)C5)CC4)cc3)C2(C)C)ccc1C#N (stereo not shown) [Compound 372, 4-[4-[7-[5-acetyl-3-[7-(difluoromethyl)-6-(1-methylpyrazol-4-yl)-3,4-dihydro-2H-quinolin-1-yl]-6,7-dihydro-4H-pyrazolo[4,3-c]pyridin-1-yl]-2-azaspiro[3.5]nonan-2-yl]-1-piperidyl]-N-[3-(4-cyano-3-methoxy-phenoxy)-2,2,4,4-tetramethyl-cyclobutyl]benzamide] |
